Experiment [1] has as its system Streptomyces avermitilis αDOX (SEQ ID NO: 13), fatty acid alpha-dioxygenase, Q82M86, N-terminal His-tag variant SEQ ID NO: 273 (comparative). As to the kind of experiment: Alpha-dioxygenase activity assay (oxygen consumption, TON). The format is biochemical. To be noted: fatty acid 100 µM, enzyme 6 ppm, 50 mM HEPES pH 9.0, 37°C; initial rate of oxygen consumption / enzyme concentration. The source says:
(§1) Streptomyces avermitilis αDOX (SEQ ID NO: 13) is a fatty acid alpha-dioxygenase that converts fatty acids into the corresponding 2-hydroperoxy fatty acids and is included as a comparative example of the present invention. A codon optimized gene (SEQ ID NO: 272) encoding for an alpha-dioxygenase variant (SEQ ID NO: 273), including an N-terminal amino acid sequence containing a His-tag was designed and synthesized by Genscript. After gene synthesis, the protein was expressed and purified. In brief, the complete synthetic gene sequence was subcloned into a pET30a vector using the NdeI/HindIII cloning sites. For heterologous expression, Escherichia coli BL21 (DE3) cells were transformed with the recombinant plasmid and a single colony was inoculated into LB medium containing kanamycin (50 mg/L). A pre-starter culture was then inoculated into flasks containing Magic Media (Thermo Fisher, Catalog # K6803) supplemented with kanamycin (50 mg/L) and incubated at 16 °C for 72 h. At an OD600nm = 0.5 - 1.0, 5-aminolevulinic acid (final concentration 0.5 mM) was added. Cells were harvested by centrifugation at 5000 rpm and 4°C and the pellet was lysed using a bacterial cell lysis buffer (B-PER - Themo Fisher, Waltham, MA). After centrifugation, the supernatant was collected, and the protein was purified by one-step purification using HisPur™ Ni-NTA Spin Columns (Thermo Scientific, Catalog # 88226) and standard protocols known in the art. […]
(§2) Reactions with alpha-dioxygenases were performed as follows. […] The reaction was incubated for up to 10 minutes at 37°C with 200 rpm agitation and the conversion was monitored using an oxygen sensor. The TON (in s-1) were calculated as the ratio between the initial rate of oxygen consumption (in µM/s) and the concentration of enzyme (in µM). […]

In experiment [2] the target is T1, Pisum sativum αDOX (SEQ ID NO: 4), fatty acid alpha-dioxygenase, Q5GQ66, N-terminal His-tag variant SEQ ID NO: 255 (Pisum sativum, UniProt Q5GQ66).
T1 construct: made in house; host or cells: Escherichia coli BL21 (DE3), pET30a
T1 sequence (Q5GQ66 1-643): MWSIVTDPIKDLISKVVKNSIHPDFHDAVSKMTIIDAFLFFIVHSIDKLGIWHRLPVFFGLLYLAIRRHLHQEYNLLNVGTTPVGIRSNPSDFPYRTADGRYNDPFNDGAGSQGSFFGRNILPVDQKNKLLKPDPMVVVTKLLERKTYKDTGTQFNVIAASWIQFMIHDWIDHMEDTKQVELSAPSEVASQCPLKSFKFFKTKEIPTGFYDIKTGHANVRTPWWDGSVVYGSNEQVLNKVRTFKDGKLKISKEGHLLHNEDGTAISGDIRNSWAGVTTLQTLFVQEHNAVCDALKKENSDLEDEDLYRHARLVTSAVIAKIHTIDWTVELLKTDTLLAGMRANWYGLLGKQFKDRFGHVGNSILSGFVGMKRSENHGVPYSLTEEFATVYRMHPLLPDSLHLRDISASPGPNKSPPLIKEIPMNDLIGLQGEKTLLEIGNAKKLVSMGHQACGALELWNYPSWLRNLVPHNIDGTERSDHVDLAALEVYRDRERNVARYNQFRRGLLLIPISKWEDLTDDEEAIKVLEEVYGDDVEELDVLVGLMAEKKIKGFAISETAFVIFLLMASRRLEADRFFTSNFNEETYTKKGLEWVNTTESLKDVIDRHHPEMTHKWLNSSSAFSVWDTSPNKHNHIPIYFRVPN
The experiment is described as above. The format is biochemical. To be noted: fatty acid 100 µM, enzyme 6 ppm, 50 mM HEPES pH 9.0, 37°C; initial rate of oxygen consumption / enzyme concentration.
Text: as §1, with “Pisum sativum” for “Streptomyces avermitilis”, “4)” for “13)”, “an” for “a comparative”, “254)” for “272)”, “255),” for “273),”, “art. The protein was concentrated using a 10 kDa MW cutoff Amicon Ultra centrifugal filter unit (Millipore Sigma, Catalog# UFC901024), followed by desalting using a disposable PD-10 desalting column (GE Healthcare Life Sciences, Catalog# 17085101) and a buffer containing 50 mM Tris-HCl, 500 mM NaCl, and 10% Glycerol at pH 8.0.” for “art.”
as §2

Each structure is given as a SMILES string.

For `CCCCCCCCCCCCCCCCCC(=O)O` [Stearic Acid], the “Stearic Acid, TON” value is 0.10 s⁻¹ in experiment [1] and 0.80 s⁻¹ in experiment [2].
Take `CCCCCCCC/C=C\CCCCCCCC(=O)O` [Oleic Acid]: the results for the “Oleic Acid, TON” value in experiment [1] and in experiment [2] were 0.00 s⁻¹ and 1.40 s⁻¹, respectively.
Turning to `CCCCCCCCCCCCCCCC(=O)O` [Palmitic Acid], the figures for the “Palmitic Acid, TON” value in experiment [1] and in experiment [2] were 0.00 s⁻¹ and 1.92 s⁻¹, respectively.
